Data taken from patent US7223788B2, “Substituted N-aryl heterocycles, process for their preparation and their use as medicaments” (Sanofi-Aventis Deutschland GmbH, priority 2003, dated 2007).

System: female NMRI mice
Test: Anorectic effect: reduction in cumulative milk consumption after oral administration (gavage) to fasted mice
Type: in vivo
Settings: oral dose 30 mg/kg by gavage, after withdrawal of food for 17 hours, condensed milk consumption over 7 hours, compared with vehicle-treated control
Protocol: The anorectic effect was tested on female NMRI mice. After withdrawal of food for 17 hours, the test product was administered by gavage. The animals were housed singly with free access to drinking water and were offered condensed milk 30 minutes after administration of the product. The condensed milk consumption was determined every half hour for 7 hours, and the general wellbeing of the animals was observed. The measured milk consumption was compared with the vehicle-treated control animals.

Compound | Reduction in the cumulative milk consumption as % of the control [%]
CC(=O)N(C)[C@@H]1CCN(c2ccc(NC(=O)Nc3ccc(Oc4ccccc4)cc3)cc2)C1 [Example 4, (R)-N-Methyl-N-(1-{4-[3-(4-phenoxyphenyl)ureido]phenyl}pyrrolidin-3-yl)acetamide] | 50
CC(=O)N(C)C1CCN(c2ccc(NC(=O)N3CCC(c4ccc(Cl)cc4)CC3)cc2)C1 (centres unmarked) [Example 13, 4-(4-Chlorophenyl)piperidine-1-carboxylic acid {4-[3-(acetylmethylamino)-pyrrolidin-1-yl]phenyl}amide] | 64
